Like-named read-outs stand apart in the source and are kept apart here.
Key:
[1] = tested on: HePG2 cells (hepatocellular carcinoma); assay: MTT antiproliferative assay, HePG2; assay type: cell-based, human; conditions: HePG2, triplicate, read-out: In vitro cytotoxicity IC50, HePG2
Experimental: (§1) The in vitro antiproliferative activity of all synthesised compounds was evaluated by an MTT assay according to the reported method[47]^,[48].
(§2) 2. Experimental procedure
(§3) 2.1. Antiproliferative screening
(§4) The in vitro antiproliferative activity of all synthesized compounds was evaluated by an MTT assay according to the reported method using five different human cancer cell lines, including […]
(§5) cervical carcinoma (HeLa), and human prostate cancer (PC-3). The cell lines were obtained from ATCC via a holding company for biological products and vaccines (VACSERA), Cairo, Egypt. The MTT assay is a colorimetric assay used for measuring the cellular growth based on the reduction of the yellow MTT to a purple formazan derivative by mitochondrial succinate dehydrogenase in viable cells. The color intensity of the formazan dye is correlated to the number of viable cells. The […]
(§6) IC50% values were calculated using dose response curves. The percentage of relative cell viability was calculated as (A570 of treated samples)/(A570 of untreated sample) × 100. The cytotoxic activity was defined as the concentration of the compound that caused 50% growth inhibition compared with the growth of an untreated cell. […]

[2] = tested on: MCF-7 cells (human breast adenocarcinoma); assay: MTT antiproliferative assay, MCF-7; assay type: cell-based; conditions: MCF-7, triplicate, read-out: In vitro cytotoxicity IC50, MCF-7
Experimental: as §1, §2, §3, §4, §5, §6

[3] = tested on: HCT-116 cells (colorectal carcinoma); assay: MTT antiproliferative assay, HCT-116; assay type: cell-based, human; conditions: HCT-116, triplicate, read-out: In vitro cytotoxicity IC50, HCT-116
Experimental: as §1, §2, §3, §4, §5, §6

WI38 normal cell = assay: MTT cytotoxicity on normal fibroblast cells; assay type: cell-based; conditions: Homo sapiens, WI-38; MTT assay, non tumour normal cell WI38
[4] = tested on: HePG2, HCT-116, MCF-7, PC3, HeLa cell lines; assay: MTT antiproliferative assay, IC50 range over the cancer cell line panel; assay type: cell-based; conditions: Homo sapiens
Experimental: as §1, §2, §3, §4, §5, §6

[5] = tested on: PC3 cells (human prostate carcinoma); assay: MTT antiproliferative assay, PC3; assay type: cell-based; conditions: PC-3, PC3, triplicate, read-out: In vitro cytotoxicity IC50, PC3
Experimental: as §1, §2, §3, §4, §5, §6

[6] = tested on: HeLa cells (cervical carcinoma); assay: MTT antiproliferative assay, HeLa; assay type: cell-based, human; conditions: triplicate, read-out: In vitro cytotoxicity IC50, HeLa
Experimental: as §1, §2, §3, §4, §5, §6

EGFR TK = biological target: T1, EGFR TK (Homo sapiens, UniProt P00533); assay: EGFR TK inhibition assay (luminescent, Kinase-Glo MAX); assay type: biochemical
T1 construct: add 20 μl of diluted EGFR enzyme and incubate at 30°C for 40
Experimental: 2.2. Epidermal growth factor inhibition assay
In vitro luminescent EGFR tyrosine kinase assay, using Kinase-Glo® MAX as a detection reagent using DP‐Glo™ reagent that measures the adenosine diphosphate (ADP) formed from a kinase reaction, were performed; this luminescent signal positively correlates with ADP amount and kinase activity. In 17 μl of distilled water, 6 μl of Kinase assay buffer and 1 μl ATP and 1 μl PTK substrate were mixed (master mixture). In every well, mix 20 μl of the master mixture and 5 μl of Inhibitor solution (Test Inhibitor) for positive control, and use 5 μl of the same solution without inhibitor (Inhibitor buffer) as the blank solution; add 20 μl of diluted EGFR enzyme and incubate at 30°C for 40

[7] = tested on: human caspase-3 (active) in HCT-116 cells; assay: Caspase-3 ELISA in HCT-116 cells; assay type: cell-based
Experimental: Caspases are critical mediators of programmed cell death, that is, apoptosis. Caspase-3 is important in processes involving dissociation of the cell and the formation of the apoptotic element; therefore, it is regarded as one of the best biochemical hallmarks of apoptosis. […] The concentration of active caspase-3 was measured using the ELISA technique. In addition, the fluorescence density produced by the tested compounds is illustrated in Figure 4. […] The level of caspase-3 increased 5.7-fold compared to the control. Moreover, a considerable 7.3-fold increase in the caspase-3 level was detected following the treatment of the MCF-7 cells with compound 11. The bioluminescent intensities of caspase-3 indicated the apoptotic activity of compounds 3 and 11.
Afterward, measure luminescence using the
tested in triplicates.[36-38].
active caspase-3 [49]. […] The tested
Subsequently, 100 µL of an
incubated for 30 min at room temperature.
chromogen. […] The intensity of the resulting colored

HCT-116 cells [8] = assay: Annexin V-FITC/PI apoptosis assay, HCT-116; conditions: HCT-116, 10 µM, 24 h; for Late apoptosis: control 0.11; for Necrosis: control 0.12; for Early apoptosis: control 0.16; for Apoptosis, Total: control 0.39
Experimental: (§7) A comparison was made to the control (DMSO) and reference (gefitinib).
(§8) The cell line samples were analysed using FACSCalibur flow cytometer.
(§9) with PI. The cells were compared with the control, which was treated with DMSO.
Analysis of cellular apoptosis
(§10) concentration, respectively, and then incubated for 24 h. Following incubation, 1 –5 × 10^5 cells were
(§11) harvested and suspended in 500 µ L of the binding buffer, 5 µ L of annexin V-FITC, and 5 µL of PI.
(§12) annexin V-FITC conjugate is specially engineered to produce an enhanced fluorescence signal and
(§13) photostability. The annexin V-FITC kit included annexin V-FITC for detecting apoptosis as well as PI
(§14) for detecting necrosis. Thus, apoptosis and necrosis could be effectively differentiated. Detection and
(§15) analysis of the annexin V-FITC binding by flow cytometry was conducted using a FITC signal
(§16) detector (typically FL1). PI staining was evaluated by a phycoerythrin emission signal detector

HCT-116 cells [9] = assay: Cell cycle analysis by PI flow cytometry, HCT-116; conditions: HCT-116, 10 µM, 24 h; for %Pre/G1: control 0.39, '% Apoptosis' in Figure 5A; for %G2/M: control 4.19; for %S: control 25.21; for %G0/G1: control 70.21
Experimental: as §7
(§17) Cell cycle analysis and induction of apoptosis
(§18) Flow cytometry analysis of the cell cycle distribution
(§19) incubation period, the cells were collected, centrifuged, and ﬁxed with ice-cold ethanol (70%). The cells were subsequently treated with a buffer containing RNAse A and 0.1% Triton X-100, and stained
(§20) with PI. The cells were compared with the control, which was treated with DMSO. The DNA content
was measured by flow cytometry [50-52].

MCF-7 cells [10] = assay: Cell cycle analysis by PI flow cytometry, MCF-7; conditions: MCF-7, 10 µM, 24 h
Experimental: as §7, §17, §18, §19, §20
was measured by flow cytometry [50-52].

MCF-7 cells [11] = assay: Annexin V-FITC/PI apoptosis assay, MCF-7; conditions: MCF-7, 10 µM, 24 h
Experimental: as §7, §8, §9
Analysis of cellular apoptosis
as §10, §11, §12, §13, §14, §15, §16

[12] = Homo sapiens, HCT-116, MTT assay
[13] = four cell lines, without HCT-116, read-out: IC50 range against HePG2, MCF-7, PC3, and HeLa cell lines
[14] = HePG2, HCT-116, MCF-7, PC3, HeLa, read-out: IC50 range over all tested cancer cell lines

T1 sequence (P00533 25-1210): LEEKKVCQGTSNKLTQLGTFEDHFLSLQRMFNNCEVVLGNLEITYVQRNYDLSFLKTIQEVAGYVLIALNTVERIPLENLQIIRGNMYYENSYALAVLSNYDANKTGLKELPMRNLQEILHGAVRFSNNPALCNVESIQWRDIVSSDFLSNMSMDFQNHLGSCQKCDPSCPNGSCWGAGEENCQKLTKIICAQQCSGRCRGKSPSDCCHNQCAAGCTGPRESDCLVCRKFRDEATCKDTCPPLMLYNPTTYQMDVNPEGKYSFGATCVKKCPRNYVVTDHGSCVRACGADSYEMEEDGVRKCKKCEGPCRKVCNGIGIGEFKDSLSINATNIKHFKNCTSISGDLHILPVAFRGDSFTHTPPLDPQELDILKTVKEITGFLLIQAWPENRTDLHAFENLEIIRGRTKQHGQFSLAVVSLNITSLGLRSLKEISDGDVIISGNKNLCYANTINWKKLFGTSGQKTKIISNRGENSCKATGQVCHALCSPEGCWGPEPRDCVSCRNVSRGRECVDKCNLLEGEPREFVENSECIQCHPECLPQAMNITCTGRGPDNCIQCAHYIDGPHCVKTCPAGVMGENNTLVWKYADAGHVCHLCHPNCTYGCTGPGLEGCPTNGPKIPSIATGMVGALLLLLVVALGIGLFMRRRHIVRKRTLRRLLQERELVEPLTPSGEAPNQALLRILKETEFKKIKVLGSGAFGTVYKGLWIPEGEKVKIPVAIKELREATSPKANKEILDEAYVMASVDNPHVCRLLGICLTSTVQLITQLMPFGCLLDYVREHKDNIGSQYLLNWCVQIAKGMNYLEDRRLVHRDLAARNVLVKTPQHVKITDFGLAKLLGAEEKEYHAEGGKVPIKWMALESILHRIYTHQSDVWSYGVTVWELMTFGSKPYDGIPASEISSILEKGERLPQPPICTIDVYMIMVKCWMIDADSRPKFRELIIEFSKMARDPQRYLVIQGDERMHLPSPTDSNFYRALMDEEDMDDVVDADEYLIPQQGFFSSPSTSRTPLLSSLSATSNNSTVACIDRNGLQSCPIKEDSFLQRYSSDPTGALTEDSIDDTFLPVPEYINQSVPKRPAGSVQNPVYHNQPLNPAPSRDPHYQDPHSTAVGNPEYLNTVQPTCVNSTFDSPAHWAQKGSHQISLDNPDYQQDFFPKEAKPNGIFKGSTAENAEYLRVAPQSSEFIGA

SMILES	melting point [°C]	IC50 (EGFR TK) [µM]	IC50 ([1]; Homo sapiens, HepG2, MTT assay) [µM]	IC50 ([2]; Homo sapiens, MCF7, MTT assay) [µM]	IC50 [3, 12] [µM]	IC50 (WI38 normal cell) [µM]	IC50 [5] [µM]	IC50 ([6]; Homo sapiens) [µM]	IC50 ([3]; MTT assay) [µM]	further results
CN(C)C/C=C/C(=O)Nc1cc2c(Nc3ccc(F)c(Cl)c3)ncnc2cc1O[C@H]1CCOC1 [Afatinib, reference compound]			5.53	7.23	11.2		7.6 ± 0.6	6.3 ± 0.69	11.2 ± 1.11	IC50 ([1]; MTT assay): 5.5 ± 0.24 µM; IC50 ([2]; MTT assay): 7.2 ± 0.5 µM; IC50 [4, 14]: 5.5 to 11.2 µM
CN(C)/C=C/C(=C(C#N)C#N)c1cc2ccccc2o1 [Compound 3, (E)-2-(1-(benzofuran-2-yl)-3-(dimethylamino)allylidene)malononitrile]		0.93	40 ± 2.5	27.4 ± 1.8	10.8 ± 1	63.1 ± 3.43	44.5 ± 3.5	69 ± 3.9		Caspase-3 Conc. ([7]; 24 h treatment, ELISA, control 63.51): 363.4 pg/mL; Caspase-3 level, Fold ([7]; compared to the control): 5.7 fold; Late apoptosis (HCT-116 cells [8]): 5.79%; Necrosis (HCT-116 cells [8]): 1.32%; Early apoptosis (HCT-116 cells [8]): 5.95%; Apoptosis, Total (HCT-116 cells [8]): 13.06%; %Pre/G1 (HCT-116 cells [9]): 13.06%; %G2/M (HCT-116 cells [9]): 12.62%; %S (HCT-116 cells [9]): 20.91%; %G0/G1 (HCT-116 cells [9]): 53.41%
COc1cccc2c1C(=O)c1c(O)c3c(c(O)c1C2=O)C[C@@](O)(C(=O)CO)C[C@@H]3O[C@H]1C[C@H](N)[C@H](O)[C@H](C)O1 [DOX, Doxorubicin, reference compound]			4.5 ± 0.2			55.3 ± 3				
CC(=C(C#N)C#N)c1cc2ccccc2o1 [Compound 2, 2-(1-(benzofuran-2-yl)ethylidene)malononitrile]	140 to 142	1.09	16.1 to 23.7	8.36 to 17.3	8.81 to 13.8	86.5 ± 4.7	26.8 ± 2.2	39 ± 2.4	8.81 ± 0.7	IC50 ([1]; MTT assay): 16.1 ± 1.4 µM; IC50 ([2]; MTT assay): 8.36 ± 0.9 µM
COc1cc2ncnc(Nc3ccc(F)c(Cl)c3)c2cc1OCCCN1CCOCC1 [Gefitinib, reference compound]										Late apoptosis (HCT-116 cells [8]): 7.47%; Necrosis (HCT-116 cells [8]): 1.8%; Early apoptosis (HCT-116 cells [8]): 7.22%; Apoptosis, Total (HCT-116 cells [8]): 16.49%; %Pre/G1 (HCT-116 cells [9]): 16.49%; %G2/M (HCT-116 cells [9]): 21.71%; %S (HCT-116 cells [9]): 13.34%; %G0/G1 (HCT-116 cells [9]): 48.37%; %Pre/G1 (MCF-7 cells [10]; control 0.55, '% Apoptosis' in Figure 6A): 13.55%; %G2/M (MCF-7 cells [10]; control 3.66): 23.63%; %S (MCF-7 cells [10]; control 27.37): 16.51%; %G0/G1 (MCF-7 cells [10]; control 66.42): 46.31%; Necrosis (MCF-7 cells [11]; control 0.15): 1.64%; Early apoptosis (MCF-7 cells [11]; control 0.16): 4.28%; Late apoptosis (MCF-7 cells [11]; control 0.24): 7.63%; Apoptosis, Total (MCF-7 cells [11]; control 0.55): 13.55%

The next lines start with results.

melting point [°C]	IC50 (EGFR TK) [µM]	SMILES	IC50 ([1]; Homo sapiens, HepG2, MTT assay) [µM]	IC50 ([2]; Homo sapiens, MCF7, MTT assay) [µM]	IC50 [3, 12] [µM]	IC50 (WI38 normal cell) [µM]	IC50 [5] [µM]	IC50 ([6]; Homo sapiens) [µM]	IC50 ([3]; MTT assay) [µM]	further results
112 to 114		CCCCNc1nccc(-c2cc3ccccc3o2)c1C#N [Compound 6, 4-(Benzofuran-2-yl)-2-(butylamino)nicotinonitrile]	79 ± 4.2	81.6 ± 4	56.4 ± 3.2	204 ± 11.1	> 100	91.9 ± 5.1		IC50 [4, 13]: 75.2 to 100 µM
180 to 182	1.12	N#Cc1c(-c2cc3ccccc3o2)ccnc1NCc1ccccc1 [Compound 10, 4-(Benzofuran-2-yl)-2-(benzylamino)nicotinonitrile]	34.3 ± 2.1	19.7 ± 1.6	27.5 ± 1.5		30.9 ± 2.6	46.2 ± 3		
124 to 126	4.24	N#Cc1c(-c2cc3ccccc3o2)ccnc1NCCCO [Compound 8, 4-(Benzofuran-2-yl)-2-(3-hydroxypropylamino)nicotinonitrile]	16.1 to 23.7		8.81 to 13.8	151 ± 8.22	36.7 ± 2.8	58.8 ± 3.7	13.8 ± 1.3	IC50 ([1]; MTT assay): 23.7 ± 1.8 µM; IC50 [4, 14]: 13.8 to 58.8 µM
186 to 188		N#Cc1c(-c2cc3ccccc3o2)ccnc1NC1CCCCC1 [Compound 9, 4-(Benzofuran-2-yl)-2-(cyclohexylamino)nicotinonitrile]	44.7 ± 2.7	35.2 ± 2.2	29.5 ± 1.8		51.1 ± 3.6	73.6 ± 4.1		
118 to 120		CCCNc1nccc(-c2cc3ccccc3o2)c1C#N [Compound 5, 4-(Benzofuran-2-yl)-2-(propylamino)nicotinonitrile]	83.6 ± 4.4	> 100	94.1 ± 5.1		94.6 ± 4.9	75.2 ± 4.8		IC50 [4, 13]: 75.2 to 100 µM
155 to 158		CCNc1nccc(-c2cc3ccccc3o2)c1C#N [Compound 4, 4-(Benzofuran-2-yl)-2-(ethylamino)nicotinonitrile]	58.8 ± 3.3	55 ± 3.2	72.4 ± 3.8		14.3 ± 1.3	21		IC50 [4, 13]: 14.3 to 58.8 µM; IC50 [6]: 21.1 ± 1.6 µM
156 to 158		COc1ccc(CCNc2nccc(-c3cc4ccccc4o3)c2C#N)cc1 [Compound 12, 4-(Benzofuran-2-yl)-2-(4-methoxyphenethylamino)nicotinonitrile]	70.5 ± 3.8	61.5 ± 3.5	49.7 ± 2.9	76.3 ± 4.14	93.5 ± 4.4	85.4 ± 4.7		
164 to 166		N#Cc1c(-c2cc3ccccc3o2)ccnc1NCCO [Compound 7, 4-(Benzofuran-2-yl)-2-(2-hydroxyethylamino)nicotinonitrile]	53.4 ± 2.9	40.8 ± 2.5	38.6	59.5 ± 3.23	70.1 ± 3.8	73.3 ± 4.2	38.6 ± 2	IC50 [4, 14]: 38.6 to 73.3 µM

From publication PMC8266232, “Design, synthesis, and analysis of antiproliferative and apoptosis-inducing activities of nitrile derivatives containing a benzofuran scaffold: EGFR inhibition assay and molecular modelling study” (Journal of Enzyme Inhibition and Medicinal Chemistry, 2021)
